Source: patent US20240208972A1, “LRRK2 INHIBITORS AND USES THEREOF” (NEURON23, INC., priority 2022, published 2024)

Legend:
Caco-2 cells = test: Caco-2 bidirectional permeability; assay type: in vitro ADME; conditions: for Caco-2 A2B (10^−6 cm/s): A to B; for Caco-2 A2B (10^−6 cm/s) / Caco-2 B2A (10^−6 cm/s): HBSS pH 7.4, 2 hours; for Caco-2 B2A (10^−6 cm/s): B to A; for Caco-2 ER: Efflux Ratio=Papp (BA)/Papp (AB)
Procedure, shortened: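 Caco-2 monolayers grown 21–28 days on PET inserts were run in duplicate in HBSS with 10 mM HEPES, pH 7.4. Compound was tested in both directions at […] for 2 h at 37 °C and quantified by LC-MS/MS. Papp, % recovery and efflux ratio (B-A/A-B) were calculated, with lucifer yellow checking monolayer integrity.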

[1] = Human liver microsomal clearance (hLM Cl); assay type: in vitro ADME; conditions: cells marked *
[2] = Brain penetration (Kp,uu) in CD-1 mice, with plasma and brain tissue binding by equilibrium dialysis; assay type: in vivo; conditions: mouse, brain and plasma (unbound), male CD-1 mice, single IV bolus 1 mg/kg
Protocol: The compounds disclosed herein were tested on CD-1 mice for brain penetration (Kp, uu) according to the following procedures.
Nine male CD-1 mice were administered TEST COMPOUND by single intravenous bolus administration at 1 mg/kg. The vehicle used for IV study was 5% DMSO, 5% solutol, 20% PEG300 and 70% water. The detailed dosing and sampling regimens are described in the following tables.
1.0 mg of test compound was accurately weighed into a glass vial, and slowly added with 104 μL of DMSO and vortexed for 1 min. Then 104 μL of solutol was added and vortexed for 1 min. Then 415 μL of PEG300 was added and vortexed for 1 min. Then 1000 μL of water was added and vortexed for 1 min. Finally, 451 μL of water was added and vortexed for 1 min to get a clear solution.
The body weights were in the range from 28.81 to 31.25 g for males on the first dosing day. All animals received a single intravenous bolus administration of TEST COMPOUND from the tail vein.
Each blood collection (about 0.06 mL per time point) was performed from saphenous vein of each animal into pre-chilled commercial K2-EDTA tubes as anti-coagulant and placed on wet ice until centrifugation.
Plasma samples were then prepared by centrifuging the blood samples at approximately 4° C., 3200×g for 10 minutes. All plasma samples were then quickly frozen over dry ice and kept at −60° C. or lower until LC-MS/MS analysis.
Brain tissue was homogenized using homogenizing buffer (15 mM PBS (pH7.4): MeOH=2:1) at the ratio of 1:9 (1 g tissue with 9 mL buffer, the dilution ratio is 10). The tissue homogenate was kept at −60° C. or lower until LC-MS/MS analysis.
The concentrations of TEST COMPOUND in plasma and brain were determined by using an LC-MS/MS method.
The plasma and brain concentration of TEST COMPOUND in study animals was subjected to a non-compartmental pharmacokinetic analysis by using the Phoenix WinNonlin software program (version 6.3 or above, Pharsight). The linear/log trapezoidal rule was applied in obtaining the PK parameters.
Individual plasma and brain concentration values that were below the lower limit of quantitation (LLOQ) were excluded from the PK parameter calculation. The nominal dose levels and nominal sampling times were used in the calculation of all pharmacokinetic parameters.
Mouse Kp, uu=(% free in mouse brain*concentration in mouse brain)/(% free in mouse plasma*concentration in mouse plasma)
The dialysis apparatus was assembled according to the manufacturer's instruction. Each Cell was filled with 120 μL of spiked plasma sample and dialyzed against equal volume of dialysis buffer (PBS). The assay was performed in duplicate. The dialysis plates were sealed and incubated in an incubator at 37° C. with 5% CO2 and rotated at 100 rpm for 6 hours. At the end of incubation, the seals were removed and 50 μL of samples from both buffer and plasma chambers were transferred to a 96-well plate.
All calculations were carried out using Microsoft Excel. The concentrations of test compound and control compound in the buffer and plasma chambers were determined from peak area ratios (PAR) of analyte to internal standard. Protein binding (% unbound and % bound) and recovery (% recovery) of test and control compounds was calculated as follows:
• 1. Thawing of the frozen brain (stored at −80° C.) • Frozen brain tissue was thawed at room temperature in a bath. Only brain tissue was used that was thawed no more than once. • 2. Preparation of brain tissue homogenate • Brain tissue homogenate was prepared by diluting one quantity (g) of the whole brain tissue with three volumes (mL) of buffer (PBS, pH 7.4) and homogenizing the mixture using a tissue homogenizer. Brain tissue homogenate was frozen at −80° C. for later use/comparison. • 3. Preparation of working solutions • The working solutions of test compound and the control compound propranolol were prepared in dimethyl sulfoxide (DMSO) at the concentration of 200 μM. […]

[3] = target: T1, wt human LRRK2, catalytic site (Homo sapiens, UniProt Q5S007); test: TR-FRET LanthaScreen Tb Kinase Activity Assay, LRRK2 kinase inhibition; assay type: biochemical; conditions: 2 nM wt human LRRK2, 400 nM peptide, 38 μM ATP
T1 construct: wt human LRRK2, catalytic site, catalytic site (ThermoFisher/USA); purchased ThermoFisher
T1 sequence (Q5S007 1879-2138 limits assumed): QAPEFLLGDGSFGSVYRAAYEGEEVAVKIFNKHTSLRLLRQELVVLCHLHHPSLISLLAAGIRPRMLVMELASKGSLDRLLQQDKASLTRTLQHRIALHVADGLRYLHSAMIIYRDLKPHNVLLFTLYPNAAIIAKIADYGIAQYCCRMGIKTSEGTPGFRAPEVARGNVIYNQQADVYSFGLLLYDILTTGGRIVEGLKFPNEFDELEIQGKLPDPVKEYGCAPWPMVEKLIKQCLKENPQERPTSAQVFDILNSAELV
Procedure, shortened: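 TR-FRET LanthaScreen format: 2 nM wt human LRRK2 catalytic domain with 400 nM fluorescein-ERM (LRRKtide) and 38 μM ATP in Kinase Buffer A, after 15 min compound preincubation. Reaction 120 min at RT, then EDTA plus Tb-anti-pLRRKtide antibody for 60 min; emission ratios analysed per kit protocol.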

Caco-2 A2B (10^−6 cm/s) (Caco-2 cells)	Caco-2 B2A (10^−6 cm/s) (Caco-2 cells)	Caco-2 ER (Caco-2 cells)	hLM Cl (mL/min/kg) [1]	Kp uu [2]	IC50 [3] [nM]	Structure (SMILES)
H (H (High permeability)”: A2B (B2A)>5)	H (H (High permeability)”: A2B (B2A)>5)	N (N (Non-substrate)”: ER<2.5)	L* (L (Low C1)”: Hep Cl<6.3 mL/min/kg)	0.2 to 0.4	< 2	Cc1n[nH]c2c1N=C(c1c(F)cccc1F)Nc1ccc(N3CCN(C)C(C(F)(F)F)C3)cc1-2 (stereo not drawn) [Example 6, 5-(2,6-difluorophenyl)-3-methyl-9-[4-methyl-3-(trifluoromethyl)piperazin-1-yl]-1,6-dihydropyrazolo[4,3-d][1,3]benzodiazepine]
H (H (High permeability)”: A2B (B2A)>5)	H (H (High permeability)”: A2B (B2A)>5)	N (N (Non-substrate)”: ER<2.5)	L* (L (Low C1)”: Hep Cl<6.3 mL/min/kg)	0.2 to 0.4	2 to 100	[2H]C([2H])([2H])c1n[nH]c2c1N=C(c1c(F)cccc1F)Nc1ccc(N3CCO[C@H](C)C3)cc1-2 [Example 11, (2R)-4-[5-(2,6-difluorophenyl)-3-(trideuteriomethyl)-1,6-dihydropyrazolo[4,3-d][1,3]benzodiazepin-9-yl]-2-methyl-morpholine]
H (H (High permeability)”: A2B (B2A)>5)	H (H (High permeability)”: A2B (B2A)>5)	N (N (Non-substrate)”: ER<2.5)	L* (L (Low C1)”: Hep Cl<6.3 mL/min/kg)	0.2 to 0.4	< 2	Cc1n[nH]c2c1N=C(c1c(F)cccc1F)Nc1c-2cc(N2CCN(CCF)[C@@H](C)C2)nc1C [Example 21, (S)-5-(2,6-difluorophenyl)-9-(4-(2-fluoroethyl)-3-methylpiperazin-1-yl)-3,7-dimethyl-1,6-dihydropyrazolo[4,3-d]pyrido[4,3-f][1,3]diazepine]

Structure (SMILES)	Caco-2 A2B (10^−6 cm/s) (Caco-2 cells)	Caco-2 B2A (10^−6 cm/s) (Caco-2 cells)	Caco-2 ER (Caco-2 cells)	hLM Cl (mL/min/kg) [1]	Kp uu [2]	IC50 [3] [nM]
Cc1n[nH]c2c1N=C(c1c(F)cccc1F)Nc1c-2cc(N2CCN(C)[C@@H](C(F)(F)F)C2)nc1C (single isomer, unassigned) [Example 37]	H (H (High permeability)”: A2B (B2A)>5)	H (H (High permeability)”: A2B (B2A)>5)	N (N (Non-substrate)”: ER<2.5)	I* (I (Intermediate C1)”: 6.3 mL/min/kg≤Hep Cl≤14.7 mL/min/kg)	0.2 to 0.4	< 2
Cc1n[nH]c2c1N=C(c1c(F)cccc1F)Nc1c-2cc(N2CCC[C@@]3(CCOC3)C2)nc1C (single isomer, unassigned) [Example 49]	H (H (High permeability)”: A2B (B2A)>5)	H (H (High permeability)”: A2B (B2A)>5)	N (N (Non-substrate)”: ER<2.5)	I* (I (Intermediate C1)”: 6.3 mL/min/kg≤Hep Cl≤14.7 mL/min/kg)	0.2 to 0.4	< 2
